The record followed here is patent US20060194293A1, “Rb1 gene induced protein (rb1cc1) and gene” (Tokuhiro CHANO, priority 2003, published 2006).

Common to all, as to assay type: cell-based, human
Assay [1] relates to U-2 OS cells. The assay is described as follows: Cell proliferation under doxorubicin treatment, parental cells. The conditions noted are these: parental U-2 OS cells. As for the experimental part:
(§1) The effect on cell proliferation in the presence of 450 ng/mL of the anticancer agent doxorubicin was examined.

The test system of assay [2] is U-2/Neo8 cells. Put plainly: Cell proliferation under doxorubicin treatment, control gene-introduced cells. The conditions noted are these: U-2/Neo8 control cells. On the procedure:
as §1

The subject of assay [3] is U-2 OS/DX580 cells. The assay is described as follows: Cell proliferation under doxorubicin treatment, MDR variant cells. The conditions noted are these: U-2 OS/DX580 MDR variants, 450 ng/mL doxorubicin. As for the experimental part:
as §1

Assay [4] deals with U-2/DOXO 35 cells. The assay is described as follows: Cell proliferation under doxorubicin treatment, MDR1 gene-introduced cells. The conditions noted are these: U-2/DOXO 35 (MDR1 gene introduced), 450 ng/mL doxorubicin. On the procedure:
as §1

Assay [5] concerns RB1CC1 gene. Put plainly: Northern blot of RB1CC1 gene expression after doxorubicin, parental U-2 OS cells. The conditions noted are these: doxorubicin treatment, over time. As for the experimental part:
(§2) Expression levels of RB1CC1 gene and MDR1 gene in parental U2 OS cells and several kinds of MDR-variant cells were analyzed by Northern blotting. A probe hybridizing between nucleotide numbers 4190 and 4654 of the RB1CC1 gene sequence was used as a probe for analysis of RB1CC1 gene, and a probe hybridizing between nucleotide numbers 834 and 1119 of MDR1 gene was used for MDR1 gene. Probes were used after labeling with α-32P-dCTP in which phosphorus at an alpha position of […] was substituted with a radioactive isotope. Glyceraldehyde-3-phosphate dehydrogenase (GAPDH) was used as the indicator of mRNA expression.
(§3) mRNA expression levels of cells that were obtained over time in the above-mentioned experiment were analyzed. Analysis was conducted for the novel gene RB1CC1 gene of the present invention, the RB1 gene and the MDR1 gene, respectively, in the same manner as Example 3 with the exception that expression levels of the RB1 gene were detected using a probe hybridizing to the site at nucleotides 336 to 675 of the nucleotide sequence of human RB1 mRNA. […] In contrast, in MDR variants of U-2 OS cells (U-2 OS/DX580) and U-2 OS cells introduced with MDR1 gene (U-2/DOXO 35), expression level of RB1CC1 gene was not inhibited by treatment with doxorubicin, and expression of RB1CC1 gene increased. […]

For assay [6], the system named is RB1CC1 gene. Put plainly: Northern blot of RB1CC1 gene expression after doxorubicin, U-2/Neo8 cells. The settings on record: U-2/Neo8 control cells, doxorubicin treatment, over time. On the procedure: as §2, §3
The subject of assay [7] is RB1CC1 gene. Put plainly: Northern blot of RB1CC1 gene expression after doxorubicin, U-2 OS/DX580 cells. The settings on record: U-2 OS/DX580 MDR variants, doxorubicin treatment. As for the experimental part: as §2, §3
Assay [8] relates to RB1CC1 gene. The assay is described as follows: Northern blot of RB1CC1 gene expression after doxorubicin, U-2/DOXO 35 cells. The settings on record: U-2/DOXO 35 (MDR1 gene introduced), doxorubicin treatment. On the procedure: as §2, §3

“Also recorded” adds a separate entry of the source.

For the molecule `COc1cccc2c1C(=O)c1c(O)c3c(c(O)c1C2=O)C[C@@](O)(C(=O)CO)C[C@@H]3O[C@H]1C[C@H](N)[C@H](O)[C@H](C)O1` [doxorubicin], the “effect on cell proliferation” value in assay [1] (450 ng/mL doxorubicin) is “suppressed”; in assay [2] (450 ng/mL doxorubicin), “suppressed”; in assay [3], “did not exhibit an inhibitory effect; also recorded: had no effect”; in assay [4], “had no effect”. Further, the cell death entry in assay [1] (doxorubicin treatment) and in assay [2] (doxorubicin treatment) was “induced cell death” each time. The “expression of the RB1CC1 gene (mRNA)” value is reported as “lowered expression; also recorded: decreased over time” in assay [5], “lowered expression; also recorded: decreased over time” in assay [6], “did not exhibit an inhibitory effect; also recorded: not inhibited” in assay [7] and “increased; also recorded: not inhibited” in assay [8].
